From publication PMC8041284, “Tunable Methacrylamides for Covalent Ligand Directed Release Chemistry” (Journal of the American Chemical Society, 2021)

target: BTK (Homo sapiens, UniProt Q06187); test: biochemical; conditions: read-out: BTK inhibition (%), 0.75 uM BTK, […] probe 3l, 15 min preincubation
Sequence (Q06187 402-655 limits assumed): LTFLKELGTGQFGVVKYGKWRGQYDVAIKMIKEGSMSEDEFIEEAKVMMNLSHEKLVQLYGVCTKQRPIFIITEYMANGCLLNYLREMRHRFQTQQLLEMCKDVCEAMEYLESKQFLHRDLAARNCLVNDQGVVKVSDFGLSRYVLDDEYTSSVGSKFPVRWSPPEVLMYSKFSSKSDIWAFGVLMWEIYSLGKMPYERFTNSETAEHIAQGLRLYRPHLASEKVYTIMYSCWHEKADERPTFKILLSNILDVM

Row | inhibition at 10 µM | Structure (SMILES)
1 | 17.2% | CN1CCN(C2CCN(C(=O)Nc3cc(Oc4ccc(NC(=O)C5(C(=O)Nc6ccc(F)cc6)CC5)c(F)c4)ccn3)CC2)CC1 [PCM-0095502]
2 | -19.5% | NCCCCCNCC12CC3CC(CC(C3)C1)C2 [PCM-0095503]
3 | -55.3% | Cc1nc(C#Cc2ccnc(Cl)c2)c(C)n1-c1ccc(OC(F)(F)F)cc1 [PCM-0095504]
4 | 5.4% | O=C(Nc1cccc(Cl)c1)c1ccccn1 [PCM-0095506]
5 | -3.1% | Cc1ccc(S(=O)(=O)n2c(N)nc3ccccc32)cc1 [PCM-0095508]
6 | 42.8% | O=C(Nc1cc(C(F)(F)F)cc(C(F)(F)F)c1)c1cc(Cl)ccc1O [PCM-0095509]
7 | 0.7% | COc1ccnc2[nH]cc(C(=O)C(=O)N3CCN(C(=O)c4ccccc4)C[C@H]3C)c12 [PCM-0095512]
8 | 17.2% | C[C@@H]1COC(Nc2ccc3ncnc(Nc4ccc(OCc5nccs5)c(Cl)c4)c3c2)=N1 [PCM-0095513]
9 | 98.6% | CNC(=O)c1cc(Oc2ccc(NC(=O)Nc3cc(C(C)(C)C)nn3-c3ccc4ncccc4c3)c(F)c2)ccn1 [PCM-0095514]
10 | 13.8% | NC1(Cc2ccc(Cl)cc2)CCN(c2ncnc3[nH]ccc23)CC1 [PCM-0095516]
11 | 15.2% | COc1ccc(-c2nc(N3CCOCC3)c3sc(CN(C)c4ncc(C(=O)NO)cn4)cc3n2)cn1 [PCM-0095517]
12 | 7.6% | Cc1nc(NC(=O)N2CCC[C@H]2C(N)=O)sc1-c1csc(C(C)(C)C)n1 [PCM-0095518]
13 | 7.6% | Cc1ccc([C@@H]2O[C@H](CO)[C@@H](O)[C@H](O)[C@H]2O)cc1Cc1ccc(-c2ccc(F)cc2)s1 [PCM-0095519]
14 | -16.6% | Cn1cc(-c2ccc3ncc(Cc4ccc5ncccc5c4)n3n2)cn1 [PCM-0095521]
15 | -13.6% | O=c1cc(N2CCOCC2)oc2c(-c3cccc4c3sc3ccccc34)cccc12 [PCM-0095522]
16 | 11.7% | CCc1cc2c(cc1N1CCC(N3CCOCC3)CC1)C(C)(C)c1[nH]c3cc(C#N)ccc3c1C2=O [PCM-0095523]
17 | -4.8% | Cn1cnc(=N)c2[nH]cnc21 [PCM-0095527]
18 | -18.6% | COc1ncc(-c2ccc3nccc(-c4ccnnc4)c3c2)cc1NS(=O)(=O)c1ccc(F)cc1F [PCM-0095528]
19 | -7.6% | CCc1cnn2c(NCc3ccc[n+]([O-])c3)cc(N3CCCC[C@H]3CCO)nc12 [PCM-0095529]
20 | 3.9% | CC(C)N(CC[C@H](c1ccccc1)c1cc(CO)ccc1O)C(C)C [PCM-0095530]
21 | -15.6% | NS(=O)(=O)c1ccc(NC(=O)Nc2ccc(F)cc2)cc1 [PCM-0095531]
22 | 0% | COc1cc(/C=C/C(=O)N2CCN(CC(=O)N3CCCC3)CC2)cc(OC)c1OC [PCM-0095532]
23 | 33.8% | COc1cc2ncnc(Nc3ccc(O)c(Br)c3)c2cc1OC [PCM-0095533]
24 | -3.1% | CCOc1nc2cccc(C(=O)O)c2n1Cc1ccc(-c2ccccc2-c2noc(=O)[nH]2)cc1 [PCM-0095534]
25 | -11% | Cn1c(=O)cc(N2CCC[C@@H](N)C2)n(Cc2ccccc2C#N)c1=O [PCM-0095535]
26 | -64.6% | CCCCCCCCOc1ccccc1C(=O)Nc1ccc(C(=O)OCC[N+](C)(CC)CC)cc1 [PCM-0095536]

Row | inhibition at 10 µM | Structure (SMILES)
27 | -35.7% | Nc1nc(N)c2nc(-c3cccc(O)c3)cnc2n1 [PCM-0095537]
28 | 4.3% | O=C1c2cccc3c2[C@H](CCC3)CN1[C@@H]1CN2CCC1CC2 [PCM-0095539]
29 | 52.4% | O=C1Nc2ccc(I)cc2/C1=C/c1cc(Br)c(O)c(Br)c1 [PCM-0095540]
30 | -6.2% | CN(C)C(=O)COC(=O)Cc1ccc(OC(=O)c2ccc(N=C(N)N)cc2)cc1 [PCM-0095541]
31 | -7.6% | Cc1cncc(CN2CCC(=C3c4ccc(Cl)cc4CCc4cccnc43)CC2)c1 [PCM-0095542]
32 | -16.3% | COCCCN1CCC(NC(=O)c2cc(Cl)c(N)c3c2OCC3)CC1 [PCM-0095543]
33 | 70% | CC1=C(C(=O)OC(C)C)C(c2cccc([N+](=O)[O-])c2)C(C(=O)OC2CN(C(c3ccccc3)c3ccccc3)C2)=C(N)N1 (stereo not drawn) [PCM-0095544]
34 | -15.3% | N[C@@H]1CCCCN(c2c(F)cc3c(=O)c(C(=O)O)cn(C4CC4)c3c2Cl)C1 [PCM-0095545]
35 | 10.2% | CN1C[C@@H]2C[C@H]1CN2c1cc2c(cc1F)c(=O)c(C(=O)O)cn2C1CC1 [PCM-0095547]
36 | -14.8% | Cc1cccc(C(C)c2cnc[nH]2)c1C (stereo not drawn) [PCM-0095548]
37 | -12.4% | O=C(O)CCCc1ccccc1 [PCM-0095550]
38 | 11.7% | Oc1ccc(OC2CCCCO2)cc1 (stereo not drawn) [PCM-0095551]
39 | 7.7% | CC(C)(C)/[N+]([O-])=C/c1ccc(S(=O)(=O)O)cc1S(=O)(=O)O [PCM-0095556]
40 | 3.9% | Nc1nc(CC(=O)Nc2ccc(CCNC[C@H](O)c3ccccc3)cc2)cs1 [PCM-0095557]
41 | -12.8% | NC[C@H](CC(=O)O)c1ccc(Cl)cc1 [PCM-0095558]
42 | 36.6% | Cc1cc(C#N)cc(C)c1Oc1nc(Nc2ccc(C#N)cc2)nc(N)c1Br [PCM-0095562]
43 | 38.9% | CC(=O)O[C@]1(C(C)=O)CC[C@H]2[C@@H]3CCC4=CC(=O)CCC4=C3[C@@H](c3ccc(N(C)C)cc3)C[C@@]21C [PCM-0095563]
44 | 19.5% | CCc1cc2c(cc1CC)CC(NC[C@H](O)c1ccc(O)c3[nH]c(=O)ccc13)C2 [PCM-0095564]
45 | -63.8% | COc1ccc(CNc2nc(N3CCC[C@H]3CO)ncc2C(=O)NCc2ncccn2)cc1Cl [PCM-0095565]
46 | -10% | O=C(O)c1cccc(-c2noc(-c3ccccc3F)n2)c1 [PCM-0095566]
47 | -32.4% | NC(=O)c1ccc(N(C(N)=O)c2c(F)cccc2F)nc1-c1ccc(F)cc1F [PCM-0095567]
48 | 47.6% | CC(C)(C)n1nc(-c2ccc(Cl)cc2)c2c(N)ncnc21 [PCM-0095568]
49 | 42.5% | CCCCCCCCCCCC1=C(O)C(=O)C=C(O)C1=O [PCM-0095569]
50 | 2.1% | C[C@H](Nc1ncnc2nc[nH]c12)c1cc2cccc(Cl)c2c(=O)n1-c1ccccc1 [PCM-0095570]
51 | 10% | COC1CCN(C(=O)c2cc(Cc3n[nH]c(=O)c4ccccc34)ccc2F)CC1 [PCM-0095571]
52 | 106% | C=CC(=O)Nc1ccc2ncnc(Nc3cccc(Br)c3)c2c1 [PCM-0095572]

Row | inhibition at 10 µM | Structure (SMILES)
53 | -4.6% | COC[C@H](NC(=O)c1cnc(C)s1)C(=O)N[C@@H](COC)C(=O)N[C@@H](Cc1ccccc1)C(=O)[C@@]1(C)CO1 [PCM-0095574]
54 | -12.5% | O=S(=O)(O)Oc1ccc(C(c2ccc(OS(=O)(=O)O)cc2)c2ccccn2)cc1 [PCM-0095575]
55 | 38.1% | Cc1ccc(C(=O)c2cc(O)c(O)c([N+](=O)[O-])c2)cc1 [PCM-0095576]
56 | -9.3% | C[N+]1(C)C2CCC1CC(OC(=O)C(O)c1ccccc1)C2 (stereo not drawn) [PCM-0095577]
57 | -27.8% | CC(C)(CO)c1cc2cc(NC(=O)C3(c4ccc5c(c4)OC(F)(F)O5)CC3)c(F)cc2n1C[C@@H](O)CO [PCM-0095580]
58 | -0.8% | CCOC(=O)CCNc1cc(N2CCc3ccccc3CC2)nc(-c2ccccn2)n1 [PCM-0095581]
59 | -6.9% | CC(C)[C@H]1C(=O)N[C@@H](CCCN=C(N)N)C(=O)NCC(=O)N[C@@H](CC(=O)O)C(=O)N[C@H](Cc2ccccc2)C(=O)N1C [PCM-0095583]
60 | -0.8% | COc1ccc(CCC(=O)Nc2nc3ccc(Cl)cc3s2)cc1OC [PCM-0095584]
61 | -6.9% | Cc1ccc2c(c1)C(=O)[C@]1(O)CCN(c3ccccc3)C1=N2 [PCM-0095585]
62 | 10.8% | CC(=O)Nc1nc2c(Oc3cc(-c4ccc(C(F)(F)F)cc4)ncn3)cccc2s1 [PCM-0095587]
63 | 8.6% | CCN1CC(CCN2CCOCC2)C(c2ccccc2)(c2ccccc2)C1=O (stereo not drawn) [PCM-0095590]
64 | -7.8% | CC(=O)N=c1sc(S(N)(=O)=O)nn1C [PCM-0095591]
65 | -18.5% | O=C(CCCCCCNC(=O)c1cnc(N(c2ccccc2)c2ccccc2)nc1)NO [PCM-0095595]
66 | -22.1% | Cc1c(Cn2c(C)nc3c(C(=O)O)cc(N4CCOCC4)cc32)cccc1C(F)(F)F [PCM-0095596]
67 | 9% | COc1ccc(Cl)cc1NC(=O)Nc1cc(C)nc2ccccc12 [PCM-0095597]
68 | 4.8% | O=C1NC(=O)/C(=C/c2cccc(C(F)(F)F)c2)S1 [PCM-0095598]
69 | 10.3% | CS(=O)(=O)c1ccc(-c2cnc(N)c(C(=O)Nc3ccccc3)n2)cc1 [PCM-0095599]
70 | 2.3% | N#Cc1cc(CN2CCC(Nc3ncnc4sc(Cl)cc34)CC2)ccc1F [PCM-0095600]
71 | -17.9% | CCNC1(C(N)=O)CCN(c2ncnc3c2nc(-c2ccccc2Cl)n3-c2ccc(Cl)cc2)CC1 [PCM-0095601]
72 | -38.6% | Cc1onc(-c2ccccc2)c1-c1ccc(S(N)(=O)=O)cc1 [PCM-0095602]
73 | 3.9% | C=C[C@]1(C)C[C@@H](OC(=O)CSC2C[C@H]3CC[C@@H](C2)N3C)[C@]2(C)[C@H](C)CC[C@]3(CCC(=O)[C@H]32)[C@@H](C)[C@@H]1O (stereo partly drawn) [PCM-0095603]
74 | -2.3% | CN1C(CCl)Nc2cc(Cl)c(S(N)(=O)=O)cc2S1(=O)=O (stereo not drawn) [PCM-0095604]
75 | 4.1% | COc1cc2ncnc(Oc3cccc(NC(=O)Nc4cc(C(C)(C)C(F)(F)F)on4)c3)c2cc1OC [PCM-0095605]
76 | 17% | CNCc1cc(-c2ccccc2F)n(S(=O)(=O)c2cccnc2)c1 [PCM-0095606]
77 | 33.1% | NC1(C(=O)N[C@@H](CCO)c2ccc(Cl)cc2)CCN(c2ncnc3[nH]ccc23)CC1 [PCM-0095607]

Row | Structure (SMILES) | inhibition at 10 µM
78 | CN1CCN(c2nc3ccccc3nc2Cl)CC1 [PCM-0095510] | -6.2%
79 | C[C@H]1CCC/C=C/[C@@H]2C[C@H](O)C[C@H]2[C@H](O)/C=C/C(=O)O1 [PCM-0095573] | 0.8%
80 | CCN(CC)C(=O)[C@]1(c2ccccc2)C[C@@H]1CN [PCM-0095594] | 0.8%
81 | Cc1cc(SCc2sc(-c3ccc(C(F)(F)F)c(F)c3)nc2C)ccc1OCC(=O)O [PCM-0095608] | -5.4%
